Experimental data taken from BindingDB's records for doi:10.1016/j.bmcl.2009.03.136 (Central Drug Research Institute, 2009).

Assay: Inhibition of rat intestinal alpha-glucosidase

COc1ccc(C=CC(=O)C[C@@H]2O[C@H](CO)[C@@H](O)[C@H](O)[C@H]2O)cc1OC [(E)-4-(3,4-dimethoxyphenyl)-1-((2S,3R,4R,5S,6R)-3,4,5-trihydroxy-6-(hydroxymethyl)tetrahydro-2H-pyran-2-yl)but-3-en-2-one]
IC50: 51.5 µM
